Target: C-C chemokine receptor type 2 (Homo sapiens, UniProt P41597)
Experiment: Inhibition of [125I]MCP-1 binding to the cloned C-C chemokine receptor type 2B expressed in CHO cells

Chain of C-C chemokine receptor type 2 (P41597 whole entry): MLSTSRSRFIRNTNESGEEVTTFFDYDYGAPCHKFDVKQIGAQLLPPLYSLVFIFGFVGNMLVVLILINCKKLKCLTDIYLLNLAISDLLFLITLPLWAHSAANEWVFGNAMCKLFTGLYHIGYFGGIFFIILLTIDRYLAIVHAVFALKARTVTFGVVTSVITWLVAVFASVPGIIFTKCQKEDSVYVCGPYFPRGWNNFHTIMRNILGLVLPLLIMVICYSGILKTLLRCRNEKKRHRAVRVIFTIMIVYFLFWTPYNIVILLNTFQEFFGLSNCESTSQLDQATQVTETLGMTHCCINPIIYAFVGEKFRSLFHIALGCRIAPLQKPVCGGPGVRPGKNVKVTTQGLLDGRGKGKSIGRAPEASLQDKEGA

Structure (SMILES): O=C(/C=C/c1ccc(Cl)c(Cl)c1)N[C@H]1CC[C@H](CN2CCC(c3c[nH]c4ccc(O)cc34)CC2)CC1 [3-(3,4-dichlorophenyl)-N-((1r,4r)-4-((4-(5-hydroxy-1H-indol-3-yl)piperidin-1-yl)methyl)cyclohexyl)acrylamide]
- Ki: 316 nM

Source: BindingDB's records for doi:10.1016/s0960-894x(01)00397-3 (Glaxosmithkline, 2001)
